The data set in a line: Solubility in toluene, xylene and chloroform at 25° C. It is filed as physicochemical. To be noted: organic solvent or mixture. The method, then: 1. A solubility (mg/mL) of compounds of Examples 1 to 11 and CBP, i.e., 4,4′-bis(9H-carbazol-9-yl)biphenyl, in toluene, xylene and chloroform was measured. The test temperature was 25° C.
Where [1] appears, read: chloroform, in chloroform, read-out: Solubility Chloroform.
Setting [2] is: chloroform, in chloroform, read-out: solubility in chloroform (text summary of Table 1).
[3] abbreviates: toluene, in toluene, read-out: Solubility Toluene.
Setting [4] is: toluene, in toluene, read-out: solubility in toluene (text summary of Table 1).
Where [5] appears, read: xylene, in xylene, read-out: Solubility Xylene.
Setting [6] is: xylene, in xylene, read-out: solubility in xylene (text summary of Table 1).

Molecules are shown by their SMILES. In brackets after ≈: the same amount, converted by molar mass. Read-outs that look alike come from different tables or passages of the source.

The solubility is the dissolved amount per volume that the medium holds. Consider `CC1(C)c2ccccc2N(c2nc(-c3ccccc3)nc(-c3cccc4c3-c3ccccc3C43c4ccccc4-c4ccccc43)n2)c2ccc3c4ccccc4n(-c4ccccc4)c3c21` [Example 6], for which the solubility by setting is: under setting [1], 460 mg/mL (≈ 545 mM); under setting [2], > 300 mg/mL; under setting [3], 350 mg/mL (≈ 415 mM); under setting [4], > 200 mg/mL; under setting [5], 392 mg/mL (≈ 464 mM); under setting [6], > 240 mg/mL.

Regarding `c1ccc(-c2nc(-c3cccc4c3-c3ccccc3C43c4ccccc4-c4ccccc43)nc(-n3c4ccccc4c4c5c6ccccc6n(-c6ccccc6)c5ccc43)n2)cc1` [Example 3], the solubility runs as follows: under setting [1], 285 mg/mL (≈ 355 mM); under setting [2], > 300 mg/mL; under setting [3], 200 mg/mL (≈ 249 mM); under setting [4], > 200 mg/mL; under setting [5], 243 mg/mL (≈ 303 mM); under setting [6], > 240 mg/mL.

Consider `c1ccc(-c2nc(-c3ccc4c(c3)C3(c5ccccc5Sc5ccccc53)c3ccccc3-4)nc(-n3c4ccccc4c4ccc5c6ccccc6n(-c6ccccc6)c5c43)n2)cc1` [Example 9], for which the solubility is, setting by setting: under setting [1], 434 mg/mL (≈ 520 mM); under setting [2], > 300 mg/mL; under setting [3], 285 mg/mL (≈ 342 mM); under setting [4], > 200 mg/mL; under setting [5], 354 mg/mL (≈ 424 mM); under setting [6], > 240 mg/mL.

`c1ccc(-c2nc(-c3cccc4c3-c3ccccc3C43c4ccccc4-c4ccccc43)nc(-n3c4ccccc4c4ccc5c6ccccc6n(-c6ccccc6)c5c43)n2)cc1` [Example 1]: the solubility is, setting by setting: under setting [1], 410 mg/mL (≈ 511 mM); under setting [2], > 300 mg/mL; under setting [3], 250 mg/mL (≈ 312 mM); under setting [4], > 200 mg/mL; under setting [5], 320 mg/mL (≈ 399 mM); under setting [6], > 240 mg/mL.

Take `[2H]c1cc2c3ccccc3n(-c3nc(-c4ccccc4)cc(-c4ccc5c(c4)-c4ccccc4C54c5ccccc5-c5ccccc54)n3)c2c2c3ccccc3n(-c3ccccc3)c12` [Example 11]: the solubility runs as follows: under setting [1], 374 mg/mL (≈ 466 mM); under setting [2], > 300 mg/mL; under setting [3], 268 mg/mL (≈ 334 mM); under setting [4], > 200 mg/mL; under setting [5], 313 mg/mL (≈ 390 mM); under setting [6], > 240 mg/mL.

Consider `c1ccc2c(c1)c1ccccc1n2-c1ccc(-c2ccc(-n3c4ccccc4c4ccccc43)cc2)cc1` [CBP, 4,4′-bis(9H-carbazol-9-yl)biphenyl, reference compound], for which the solubility runs as follows: under setting [1], 185 mg/mL (≈ 382 mM); under setting [3], 130 mg/mL (≈ 268 mM); under setting [5], 153 mg/mL (≈ 316 mM).

For the compound `c1ccc(-c2nc(-c3ccc4c(c3)C3(c5ccccc5-4)c4ccccc4N(c4ccccc4)c4ccccc43)nc(-n3c4ccccc4c4cc5c6ccccc6n(-c6ccccc6)c5cc43)n2)cc1` [Example 10], the solubility is, setting by setting: under setting [1], 344 mg/mL (≈ 385 mM); under setting [2], > 300 mg/mL; under setting [3], 220 mg/mL (≈ 246 mM); under setting [4], > 200 mg/mL; under setting [5], 284 mg/mL (≈ 318 mM); under setting [6], > 240 mg/mL.

Take `CC1(C)c2ccccc2N(c2nc(-c3ccccc3)nc(-c3ccc4c(c3)-c3ccccc3C43c4ccccc4-c4ccccc43)n2)c2cc3c(cc21)c1ccccc1n3-c1ccccc1` [Example 5]: the solubility runs as follows: under setting [1], 445 mg/mL (≈ 527 mM); under setting [2], > 300 mg/mL; under setting [3], 330 mg/mL (≈ 391 mM); under setting [4], > 200 mg/mL; under setting [5], 376 mg/mL (≈ 445 mM); under setting [6], > 240 mg/mL.

Regarding `c1ccc(-c2cc(-c3ccc4c(c3)-c3ccccc3C43c4ccccc4-c4ccccc43)nc(N3c4ccccc4Oc4ccc5c(c43)c3ccccc3n5-c3ccccc3)n2)cc1` [Example 4], the solubility runs as follows: under setting [1], 430 mg/mL (≈ 526 mM); under setting [2], > 300 mg/mL; under setting [3], 305 mg/mL (≈ 373 mM); under setting [4], > 200 mg/mL; under setting [5], 362 mg/mL (≈ 443 mM); under setting [6], > 240 mg/mL.

Take `c1ccc(-c2nc(-c3cccc4c3-c3ccccc3C43c4ccccc4-c4ccccc43)nc(-n3c4ccccc4c4cc5c6ccccc6n(-c6ccccc6)c5cc43)n2)cc1` [Example 2]: the solubility was 294 mg/mL (≈ 367 mM) under setting [1]; > 300 mg/mL under setting [2]; 205 mg/mL (≈ 256 mM) under setting [3]; > 200 mg/mL under setting [4]; 256 mg/mL (≈ 319 mM) under setting [5]; > 240 mg/mL under setting [6].

With `CC1(C)c2ccccc2-c2ccc3c4ccccc4n(-c4nc(-c5ccccc5)nc(-c5cccc6c5-c5ccccc5C65c6ccccc6-c6ccccc65)n4)c3c21` [Example 8], the solubility under setting [1] is 510 mg/mL (≈ 677 mM); the solubility under setting [2] was > 300 mg/mL; the solubility under setting [3] was 400 mg/mL (≈ 531 mM); the solubility under setting [4] was > 200 mg/mL; the solubility under setting [5] stood at 452 mg/mL (≈ 600 mM); the solubility under setting [6] was > 240 mg/mL.

Turning to `CC1(C)c2ccccc2N(c2ccccc2)c2cc3c(cc21)N(c1nc(-c2ccccc2)cc(-c2cccc4c2-c2ccccc2C42c4ccccc4-c4ccccc42)n1)c1ccccc1C3(C)C` [Example 7], the solubility reads like this: under setting [1], 473 mg/mL (≈ 534 mM); under setting [2], > 300 mg/mL; under setting [3], 362 mg/mL (≈ 409 mM); under setting [4], > 200 mg/mL; under setting [5], 405 mg/mL (≈ 458 mM); under setting [6], > 240 mg/mL.

The record behind these values is patent US11447496B2, “Nitrogen-containing fused heterocyclic ring compound and application thereof” (GUANGZHOU CHINARAY OPTOELECTRONIC MATERIALS LTD., priority 2016, dated 2022).
